Measurements taken from patent publication US20070135462A1, “Combination therapy” (priority 2004, published 2007).

Assays:
range of models = experiment: anti-tumour activity in a range of models; assay type: in vivo; settings: once-daily oral administration
HUVEC [1] = experiment: HUVEC assay, basal endothelial cell proliferation; assay type: cell-based; settings: Homo sapiens, read-out: IC50 for inhibition of basal endothelial cell proliferation
HUVEC [2] = experiment: HUVEC assay, VEGF-stimulated endothelial cell proliferation; assay type: cell-based; settings: Homo sapiens, read-out: IC50 for inhibition of VEGF-stimulated endothelial cell proliferation
Calu-6 tumour xenograft = Calu-6 tumour xenograft in vivo solid tumour model; settings: once-daily oral, 28 days

In the case of `COc1cc2c(Oc3ccc4[nH]c(C)cc4c3F)ncnc2cc1OCCCN1CCCC1` [AZD2171, 4-(4-fluoro-2-methyl-1H-indol-5-yloxy)-6-methoxy-7-(3-(pyrrolidin-1-yl)propoxy)quinazoline], the anti-tumour activity (range of models) is reported as “broad-spectrum anti-tumour activity”, the IC50 (HUVEC [1]) is reported as greater than 500 nM and the IC50 (HUVEC [2]) is reported as 0.4 ± 0.2 nM. The “inhibition of growth of Calu-6 tumour xenograft” value (“inhibition” for short) (Calu-6 tumour xenograft; 1.5 mg/kg/day, P<0.01) was 49%, the “inhibition” value (Calu-6 tumour xenograft; 3 mg/kg/day, P<0.0001) was 69% and the “inhibition” value (Calu-6 tumour xenograft; 6 mg/kg/day, P<0.0001) was 91%.
